From patent US20120015925A1, “NOVEL BENZOTHIAZEPINE AND BENZOTHIEPINE COMPOUNDS” (ASAHI KASEI PHARMA CORPORATION, priority 2004, published 2012)
Blank lines part the entries; values can stand above or below the compound they belong to.

What was measured:
[1] = tested on: rats with partial ligation of the bile duct dosed bile acid; test: Model for hepatic disorder associated with cholestasis (partial bile duct ligation model), Protocol A: AST, ALT, ALP; format: in vivo, rat; details: Table 11, Protocol A, ursodeoxycholic acid 50 mg/kg oral twice per day for 3.5 days, N=8, mean±standard error
From the text: (§1) In the present Test Example, a model for the hepatic disorder caused by partial ligation of the bile duct was employed with reference to Kanno's method (Liver, 43, Suppl(1):A126, 2002).
(§2) That is, to the SD (IGS) strain male rats at 7 to 10 weeks of age, the partial ligation of the bile duct was given with opening the abdominal cavity under anesthesia with pentobarbital. Before the operation, the blood was collected from femoral vein, in order to obtain the value before the administration. From the day after the operation, 200 mg/kg of bile acid and the test compound were orally administered forcibly twice per day for 3.5 days (Protocol A). Without giving the partial ligation of the bile duct, 200 mg/kg of bile acid and the test compound were also orally administered forcibly twice per day for 3.5 days (Protocol B). In both cases, the test compound was dissolved or suspended in distilled water or an aqueous solution of 1% HCO 60 (Nippon Chemicals). To the control group, saline was administered. As comparative examples, 25 mg/kg of cholestyramine (supplied from Sigma) or 50 mg/kg of ursodeoxycholic acid (supplied from Mitsubishi Pharma) was administered. For considering the effect of the operation, sham operation (sham group) was performed in some cases. The blood was collected from the abdominal aorta 6 hours after the drug administration on the final day of the experiment. AST (GOT), ALT (GPT) and ALP in the blood were measured using measurement kits (GOT II-HA Test Wako, GPT II-HA Test Wako and Alkaline Phosphor HA Test Wako, all were supplied from Wako Pure Chemical Industries) and using an automatic analyzer (Nitech ANALAYZER SUPER Z818).

rats dosed cholic acid = test: Lowering effect on bile acid concentrations in portal vein blood in rats dosed cholic acid; format: in vivo, rat; details: 0.1 mg/kg oral; surfactant Tween 20 0.05%; cholic acid 200 mg/kg; portal vein blood 2 hours after administration
Protocol: In the present Test Example, a lowering effect on bile acid concentrations in portal vein blood in rats dosed cholic acid was evaluated according to the method described in Jpn. Pharmacol. Ther., Vol. 24 Supplement, 1996, 103(S-577)-110(S-584).
That is, SD (IGS) strain male rats at 7 to 9 weeks of age were fasted one day before the administration date. […] The blood was collected from the portal vein 2 hours after the forced oral administration, and a total bile acid value in serum was measured to examine the effect of the test compound (n=6). As a control, another group (n=6) merely received cholic acid (200 mg/kg), to which the same procedure was applied. The cholic acid value was measured using the commercially available kit (brand name: Total Bile Acid-Test Wako, supplied form Wako Pure Chemical Industries). Defining the value in the control group to which no test compound had been administered as being 100%, a reduction rate (%) of the bile acid value when a certain amount of the test compound had been administered was calculated.

rats dosed bile acid = test: Model for hepatic disorder associated with cholestasis, Protocol B (bile acid without partial ligation): AST, ALT, ALP; format: in vivo, rat; details: Table 13, Protocol B, ursodeoxycholic acid 50 mg/kg oral twice per day for 3.5 days, N=8, mean±standard error
From the text: as §1, §2

Caco-2 cells [2] = test: Measurement of permeability through Caco-2 cell; format: in vitro ADME, human; details: 2 hours
Protocol: Permeability of the compound described in Examples through Caco-2 cells was studied with reference to Artursson Per et al.'s method (Journal of Pharmaceutical Sciences, 79(6): 476-482:1990).
Transwell cell culture chamber (Costar) having a membrane filter coated with collagen (3 μm pores, 0.33 cm^2 growth area) was placed on a 24-well plate. Caco-2 cells (purchased from ATCC) were seeded at the amount of 6.6×10^4 cells/filter (2×10^5 cells/cm^2) (D-MEM medium, 10% FBS (Fetal Bovine Serum), 0.1 mM NEAA (Non Essential Amino Acid), 100 U/mL penicillin, 100 μg/mL streptomycin, supplied from Gibco, and 25 mM glucose). Each Transwell cell culture chamber was placed in each well in a 24-well plate. 0.75 mL of the medium was filled in an external chamber and 0.15 mL of the medium was filled in an internal chamber. The medium was changed every 2 to 3 days, and 18 to 25 days after seeding when a single layer of Caco-2 cells was formed, the cells were used for the test.
In the test for examining the permeability of the compound, the Caco-2 cells cultured in the chamber were used. The internal and external chamber solutions were replaced twice with Hanks balanced salt solution (HBSS) containing 25 mM glucose, 10 mM Hepes and 0.05% Tween 80. […] A permeability coefficient (Papp) was calculated from the formula Papp=dQ/dt/(Co×A). […]

male beagle dogs = test: Effect of combination with pravastatin on plasma total cholesterol levels in dogs; format: in vivo, dog
From the text: The effect of the combination of the compounds described in Example with pravastatin (HMG-CoA reductase inhibitor) on plasma cholesterol levels in dogs was examined.
To male beagle dogs (supplied from Kitayama Labes, body weight 9 to 13 kg), usual solid feedstuff (DS-A: Oriental Yeast Co., Ltd.) was given once daily at 13:00 to 14:00. The light was turned on from 7:00 to 19:00 as a light period, and the remaining was defined as a dark period. Water was given ad libitum. In the morning in the week prior to the administration, the blood was collected with heparin from forearm cephalic vein, and plasma was collected by centrifugation. The total cholesterol level of this plasma was measured using the commercially available cholesterol level measurement kit by the enzymatic method (Cholesterol-E Test Wako). The dogs were grouped so that the total cholesterol levels were almost equal. Sodium pravastatin (1 mg/kg, Sankyo) alone or 3 mg/kg of the compound described in each of Examples alone or the combination thereof was orally administered once daily just before feeding for 7 days. Pravastatin was dissolved in distilled water, and the compound described in Example was suspended in 0.5% methylcellulose solution for administration. On the day after the final administration, the blood was collected from the forearm cephalic vein under starving, to which plasma was obtained. The total cholesterol level therein was measured by the same way. As a result, the total cholesterol level in the plasma was reduced by 7 mg/dL (6%) by orally administering 1 mg/kg/day of pravastatin for 7 days. The total cholesterol level in the plasma was reduced by […] (3 to 8%) by orally administering 3 mg/kg/day of the compound described in each of Examples for 7 days. When pravastatin and the compound described in each of Examples were co-administered at this dosages, the total cholesterol in the plasma was reduced by 14 to 24 mg/dL (12 to 20%). The reduction rate of the total cholesterol level was larger in the co-administration with the compound described in Example than in the administration of pravastatin alone, and the augmented effect by the co-administration was observed.

Caco-2 cells [3] = test: Facilitation effect on permeability of combined compound (pravastatin, atorvastatin) through Caco-2 cells
Protocol: The permeability through Caco-2 cells was measured by the same way as in Test Example 15.
It was examined whether the permeability coefficient of the combined compound was changed in the presence of the compound described in Examples or the compound in Comparative Examples.

[4] = pravastatin 1 mg/kg alone, oral once daily for 7 days, vehicle 1

SMILES: C[C@H](CCC(=O)O)[C@H]1CC[C@H]2[C@@H]3[C@@H](O)C[C@@H]4C[C@H](O)CC[C@]4(C)[C@H]3CC[C@]12C [Comparative Example 2, ursodeoxycholic acid, reference compound]
- ALT ([1]; control group 200 ± 81): 98 ± 25 IU/L
- AST ([1]; control group 400 ± 160): 256 ± 64 IU/L
- ALP ([1]; control group 1120 ± 410): 785 ± 120 IU/L
- BILE ACID REDUCTION RATE (%) IN RAT MODEL WITH CHOLIC ACID LOADING (rats dosed cholic acid): 3%
- ALT (rats dosed bile acid; control group 82 ± 17): 62 ± 9 IU/L
- AST (rats dosed bile acid; control group 157 ± 35): 109 ± 11 IU/L
- ALP (rats dosed bile acid; control group 593 ± 77): 453 ± 58 IU/L

- PERMEATION RATIO (PERMEATION × 10^−6 cm/s) (Caco-2 cells [2]; 100 μM in internal chamber, HBSS pH 7.4, 37° C.): 29.4 × 10^−6 cm/s
- permeability coefficient (Papp) through Caco-2 cells (Caco-2 cells [2]; 100 μM, 37° C., pH 7.4): high permeability coefficients
SMILES: CC(C)NCC(O)COc1cccc2ccccc12 (centres unmarked) [Propranolol]

SMILES: CC[C@H](C)C(=O)O[C@H]1C[C@H](O)C=C2C=C[C@H](C)[C@H](CC[C@@H](O)C[C@@H](O)CC(=O)O)[C@H]21 [pravastatin, reference compound]
- plasma total cholesterol BEFORE TREATMENT (male beagle dogs; pravastatin 1 mg/kg alone group, baseline, N=4, mean±standard error): 114 ± 6 mg/dL
- plasma total cholesterol AFTER TREATMENT (male beagle dogs; pravastatin 1 mg/kg alone, oral once daily for 7 days, N=4, mean±standard error): 106 ± 5 mg/dL
- plasma total cholesterol BEFORE TREATMENT − AFTER TREATMENT (male beagle dogs; [4]): 7 mg/dL
- reduction rate with respect to the data before administration (number in parenthesis) (male beagle dogs; [4]): 6
- total cholesterol level in the plasma reduced by (male beagle dogs; pravastatin alone 1 mg/kg/day oral, 7 days): 7 mg/dL
- total cholesterol level in the plasma, reduction rate (male beagle dogs; pravastatin alone 1 mg/kg/day oral, 7 days, with respect to before administration): 6%
- RATE OF INCREASE (%) (Caco-2 cells [3]; statin alone (reference = 100)): 100%
- […] (PERMEATION × 10^−6 cm/s) (Caco-2 cells [3]; statin alone, 25 μM, 37° C., 2 hours): 0.33 × 10^−6 cm/s
